Reference: patent US7345049B2, “Phenylalanine derivatives” (Ajinomoto Co., Inc., priority 2003, dated 2008)
pIC50: −log10 of the molar value.

Columns and labels:
[1] = Pharmacokinetic study by intravenous administration to a rat; type: in vivo; details: plasma, 1 mg/kg; intravenous single dose, 1 mg/mL solution at 1 mL/kg, Wistar rat, active form; read-out: Total body clearance CLtot (converted)
Experimental: Pharmacokinetic Study by Intravenous Administration to a Rat
After the compounds of the present invention wherein R11 to R141 are a hydroxyl group, which were active forms, were weighed by a scale, they were adjusted by dimethylsulfoxide to become 10 mg/mL. Polyethylene glycol 400 and distilled water were added thereto to prepare 1 mg/mL of an administration solution. 1 mg/mL of the administration solution was intravenously administered as a single dose to a Wistar rat in an amount of 1 mL/kg. 1, 5, 10, 30, 60 and 180 minutes later, the drug concentration in the blood plasma obtained by blood drawing from its cervical vein over time under anesthesia was determined with LC/MS. From the obtained results, the area under the plasma concentration time curve from zero to time infinity (AUCinf (iv)) was calculated in accordance with the trapezoidal method of pharmacokinetic analysis. The total body clearance (CLtot, [L/hr/kg]) was calculated as an index of drug disappearance in the blood plasma from a dose [mg/kg] and AUC [μg×hr/mL] in accordance with the formula: CLtot=Dose÷AUCinf(iv).

[2] = target: T1, VCAM-1/α4β1 integrin binding (Homo sapiens, UniProt P05556+P13612); assay: Assay of antagonistic activity to VCAM-1/α4β1 integrin binding under the existence of blood serum (Jurkat cell adhesion to VCAM-1/Fc); type: cell-based; details: Jurkat cells, recombinant human VCAM-1/Fc, 50% human blood serum
T1 construct: Jurkat (ATCC TIB-152), known to express integrin α4β1; endogenous in cells; host or cells: Jurkat (ATCC TIB-152)
Experimental: Assay of Antagonistic Activity to VCAM-1/α4β1 Integrin Binding Under the Existence of Blood Serum
The capacity of a test substance antagonistic to the binding of cell strain of human T cells, Jurkat (ATCC TIB-152), known to express integrin α4β1, to VCAM-1 was determined.
Fifty μl/well of a solution (500 ng/ml) of recombinant human VCAM-1/Fc (R & D systems) diluted with buffer A (0.1 M NaHCO3, pH 9.6) was added to a 96-well microtiter plate (Nunc Maxisorp). After the incubation at 4° C. overnight and washing once with PBS, a buffer (buffer B) obtained by diluting Block Ace (Snow Brand Milk Products Co., Ltd.) with PBS to ½ concentration was added in an amount of 150 μl/well. After the incubation at room temperature for 2 hours, buffer B was removed and the plate was washed with PBS once.
Jurkat cells were washed with Dulbecco modified Eagle medium (SIGMA, hereinafter referred to as “DMEM”) once. Then, the cells were again suspended in a binding buffer (DMEM containing 20 mM HEPES, 0.1% BSA, 2 mM MnCl2 and 50% human blood serum (Sigma)) to become 1×10^6 cells/mL.
Sixty μl of a test substance of various concentrations obtained by the dilution with the binding buffer was added to a round-bottom, 96-well plate (IWAKI). Immediately thereafter, 60 μl of the Jurkat cells (1×10^6 cells/ml) were added thereto and shaken on a plate shaker (IKA-Labortechnik, IKA-SCHUTTLER MTS-4) at 1000 rpm for 10 seconds. In 120 μL of the cell suspension to which the test substance was added, each 100 μL thereof was transferred on the VCAM-1/Fc-coated plate and incubated in dark place at room temperature for 60 minutes. After the shaking on the plate shaker at 1000 rpm for 30 seconds, the solution was immediately removed. Then, the unbound cells were removed by washing them with PBS once. A buffer C (PBS containing 0.82% Triton X-100) was added to the plate in an amount of 70 μL/well. After the shaking on the plate shaker at 1000 rpm for 5 minutes, the bound Jurkat cells were lysed. After centrifuging the cells on a plate centrifuge (SIGMA 4-15C) at room temperature at 2500 rpm for 5 minutes, 50 μL of supernatant thereof was transferred to a 96-well microtiter plate (Nunc Maxisorp). Each 50 μL of Substrate Buffer (Promega, CytoTox 96 Non-Radioactive Cytotoxicity Assay) was added thereto, shaken on a plate shaker at 1000 rpm for 10 seconds and reacted in dark place at room temperature for 30 minutes. Then, each 50 μL of Stop Solution (Promega, CytoTox 96 Non-Radioactive Cytotoxicity Assay) was added thereto and shaken on a plate shaker at 1000 rpm for 10 seconds. […] The absorbance thus obtained detects an activity of lactate dehydrogenase (LDH) dissolved in the supernatant of each well. Namely, the absorbance is proportional to the number of remaining Jurkat cells on the plate via the binding to VCAM-1. The test was conducted in duplicate and the binding rate of each test substance in various concentrations was determined while the absorbance of the test substance-free well was determined to be 100% and the absorbance of the Jurkat-cell-free well was determined to be 0%. The concentration for the 50% inhibition of binding, IC50, was calculated.

T1 sequence (P13612 34-1032): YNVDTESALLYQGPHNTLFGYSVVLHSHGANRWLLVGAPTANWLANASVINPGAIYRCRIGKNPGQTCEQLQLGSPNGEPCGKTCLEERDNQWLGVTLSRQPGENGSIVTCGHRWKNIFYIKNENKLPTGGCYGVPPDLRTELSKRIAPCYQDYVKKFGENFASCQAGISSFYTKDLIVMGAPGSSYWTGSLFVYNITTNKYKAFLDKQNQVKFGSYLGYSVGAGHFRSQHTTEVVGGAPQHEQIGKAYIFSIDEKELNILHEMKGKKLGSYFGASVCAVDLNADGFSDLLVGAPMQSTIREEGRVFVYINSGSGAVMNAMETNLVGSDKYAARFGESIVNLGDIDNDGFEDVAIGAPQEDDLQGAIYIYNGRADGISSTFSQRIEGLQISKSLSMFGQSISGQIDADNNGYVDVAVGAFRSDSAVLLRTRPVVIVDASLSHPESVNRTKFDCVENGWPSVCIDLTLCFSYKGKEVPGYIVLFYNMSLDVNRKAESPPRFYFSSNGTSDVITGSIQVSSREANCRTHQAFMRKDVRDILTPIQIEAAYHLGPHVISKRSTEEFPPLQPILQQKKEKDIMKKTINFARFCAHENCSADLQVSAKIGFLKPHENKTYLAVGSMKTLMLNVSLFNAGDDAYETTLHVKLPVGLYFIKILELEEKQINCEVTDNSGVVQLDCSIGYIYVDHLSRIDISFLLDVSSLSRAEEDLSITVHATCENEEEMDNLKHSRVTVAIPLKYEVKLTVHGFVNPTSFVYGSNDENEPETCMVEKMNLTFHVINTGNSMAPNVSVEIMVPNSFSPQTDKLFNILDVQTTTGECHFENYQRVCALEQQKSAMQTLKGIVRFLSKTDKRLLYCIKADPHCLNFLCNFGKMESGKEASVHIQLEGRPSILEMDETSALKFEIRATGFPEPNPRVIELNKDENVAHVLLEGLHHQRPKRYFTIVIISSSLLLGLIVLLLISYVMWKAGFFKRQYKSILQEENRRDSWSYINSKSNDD
T1 sequence (P05556 21-798): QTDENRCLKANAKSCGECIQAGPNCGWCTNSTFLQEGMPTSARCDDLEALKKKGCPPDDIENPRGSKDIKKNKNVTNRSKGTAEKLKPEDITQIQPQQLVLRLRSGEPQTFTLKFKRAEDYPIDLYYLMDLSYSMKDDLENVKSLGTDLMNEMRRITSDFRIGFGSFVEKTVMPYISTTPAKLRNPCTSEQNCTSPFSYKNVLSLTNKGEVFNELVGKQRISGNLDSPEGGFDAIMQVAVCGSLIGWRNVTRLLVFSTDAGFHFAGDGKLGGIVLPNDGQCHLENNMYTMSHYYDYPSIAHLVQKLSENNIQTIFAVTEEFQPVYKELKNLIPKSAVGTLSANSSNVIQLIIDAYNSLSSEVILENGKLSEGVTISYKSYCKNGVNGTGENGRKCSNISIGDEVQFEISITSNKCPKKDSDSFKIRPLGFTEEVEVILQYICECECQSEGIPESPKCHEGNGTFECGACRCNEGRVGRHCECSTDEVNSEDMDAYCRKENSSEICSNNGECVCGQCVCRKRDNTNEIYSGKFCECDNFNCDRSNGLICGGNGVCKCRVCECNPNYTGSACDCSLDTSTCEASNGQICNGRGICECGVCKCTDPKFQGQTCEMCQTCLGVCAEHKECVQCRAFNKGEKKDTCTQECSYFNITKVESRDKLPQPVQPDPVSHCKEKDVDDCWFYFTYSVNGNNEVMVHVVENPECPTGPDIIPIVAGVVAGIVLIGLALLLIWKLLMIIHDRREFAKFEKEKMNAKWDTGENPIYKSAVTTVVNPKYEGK

SMILES	clearance [1] [mL/min/kg]	pIC50 [2]
CN(C)Cc1ccc2c(=O)n(-c3ccc(C[C@H](NC(=O)c4c(Cl)cccc4Cl)C(=O)O)cc3)c(=O)n(C)c2c1.O=C(O)C(F)(F)F [Example 34, N-(2,6-dichlorobenzoyl)-4-[7-[(dimethylamino)methyl]-1-methyl-2,4-quinazoline-dione-3-yl]-L-phenylalanine Trifluoroacetate]	5.17	7.98
CSc1ccc2c(c1)c(=O)n(-c1ccc(C[C@H](NC(=O)c3c(Cl)cccc3Cl)C(=O)O)cc1)c(=O)n2C [Example 37, N-(2,6-dichlorobenzoyl)-4-[1-methyl-6-(methylthio)-2,4-quinazoline-dione-3-yl]-L-phenylalanine]	5.5	–
CCNCc1ccc2c(c1)c(=O)n(-c1ccc(C[C@H](NC(=O)c3c(Cl)cccc3Cl)C(=O)O)cc1)c(=O)n2C [Example 54]	4.5	7.84

More lines, now with the values ahead:

clearance [1] [mL/min/kg]	pIC50 [2]	SMILES
5.33	–	Cn1c(=O)n(-c2ccc(C[C@H](NC(=O)c3c(Cl)cccc3Cl)C(=O)O)cc2)c(=O)c2cc(-n3ccnc3N)ccc21 [Example 59]
3.83	7.95	CNCc1ccc2c(c1)c(=O)n(-c1ccc(C[C@H](NC(=O)c3c(Cl)cccc3Cl)C(=O)O)cc1)c(=O)n2C [Example 99]
3.17	–	Cn1c(=O)n(-c2ccc(C[C@H](NC(=O)c3c(Cl)cccc3Cl)C(=O)O)cc2)c(=O)c2ccc(N3CCCC3)cc21.O=C(O)C(F)(F)F [Example 40, N-(2,6-dichlorobenzoyl)-4-[1-methyl-7-(pyrrolidine-1-yl)-2,4-quinazoline-dione-3-yl]-L-phenylalanine trifluoroacetate]
